According to US6265445A, “Antiarrhythmic compounds” (priority 1997, dated 2001):

Assays:
[1] = system: right ventricular papillary muscle of dogs; experiment: Intracellular microelectrode technique: action potential parameters, ventricular papillary muscle; design: species or system mongrel dogs
Procedure: The method used is essentially in agreement with the method of Papp et al. [J. Cardiovascular Pharmacol. Ther. 1, 287-296 (1996)].
Right ventricular papillary muscle and Purkinje's fibres were prepared from the hearts of mongrel dogs (weighing 5 to 10 kg each). The preparations were placed into an organ bath (37° C.) containing modified Tyrode's nutrient medium. The preparations were excited by a basal frequency of 1 Hz. During the experiments, the frequency of stimulation was varied under broad limits by a computer-guided stimulator. The intracellular action potentials were registered by using glass capillary microelectrodes filled with 3 N potassium chloride solution (standard intracellular microelectrode techniques). The resting potential (RP), the amplitude of the action potential (APA) as well as the duration of the action potential (APD) were measured by using an IBM 386 compatible computer by means of an own-developed software. The compounds under test were directly added into the organ bath after dilution of the stock solutions according to the final concentrations desired. The effects of the compounds were observed after an incubation time of 30 to 40 minutes.

dog Purkinje's fibres = experiment: Effect on early after-depolarization induced by dofetilide and BaCl2; conditions: 2 μM; EAD induced by 1 μM dofetilide and 20 μM BaCl2
Procedure: An early after-depolarization (EAD) was induced on dog Purkinje's fibres by the simultaneous use of 1 μM dofetilide and 20 μM BaCl2. These EAD-s were abolished by the addition of the compound (2 μM) of Example 15.

in vivo = conditions: mouse, in vivo
Procedure: (§1) Determination of the LD50 Value on Mice
(§2) Animal: male CDI mice (starved) weighing 20 to 22 g each at the time of treatment.
(§3) Observation period: 2 weeks.
(§4) Vehicle: 1 to 2% of Tween-80 in distilled water or in physiological saline, respectively.
(§5) Treatment volume 0.1 ml/10 g of body-weight.

mice = experiment: in vivo
Procedure: as §1, §2, §3, §4, §5

[2] = system: arrhythmias following coronary artery occlusion in conscious rats; experiment: Occlusion arrhythmia following acute coronary artery ligation in conscious rats; assay type: in vivo, male rats
From the text: The method used is essentially in agreement with the method of Lepran et al. [J. Pharmacol. Methods 9, pp. 219-230 (1983)].
During a previous operation, male rats weighing 340 to 360 g each were fitted with a loose surgical thread loop around the left descending coronary vessel, at about 2 mm from its origin. The ends of the loop thread were led out from the chest under the skin, then the surgical wound was closed. After complete recovery from this previous operation (7 to 8 days) acute myocardial ischaemia was induced by contracting the loose ligation in the conscious, freely moving animals. ECG was continuously registered by using bipolar chest electrodes before the ligation of the coronary artery and during the first 15 minutes of ischaemia. The ratio of survivals was determined and the developed arrhythmias were evaluated according to the Lambeth Convention [Walker et al.: Cardiovasc. Res. 22, 447-455 (1988)]. For evaluation of the arrhythmic episodes a score system was also employed by considering the severity of episodes on the basis of a score system from 0 to 6. Both d-sotalol and the substance of Example 15, respectively, were suspended in 1% methylcellulose and administered orally through a gastric sound at 1 hour before the compression of the coronary vessel. The control animals received a treatment with the same volume, i.e. 5 ml/kg of vehicle.

[3] = Table 4, ventricular muscle, 5 μM, 1 Hz, N = 6
[4] = p.o. 25 mg/kg, first 15 minutes

For `Cc1cccc(C)c1OCC(C)N(C)CCc1ccc(NS(C)(=O)=O)cc1.Cl` (stereo not shown) [Example 15, N-[4-[2-[N-Methyl-N-[2-(2,6-dimethylphenoxy)-1-methylethyl]amino]ethyl]phenyl]methanesulfonamide hydrochloride], the “APA (amplitude of the action potential)” value ([1]; 5 μM) was 106 mV, the “APD50 (time of 50% repolarization)” value ([1]; 5 μM) was 210 ms and the “APD90 (time of 90% repolarization)” value ([1]; 5 μM) was 261 ms. For the same compound, the “RP (resting potential)” value ([1]; 5 μM) was -85 mV, the “Recovery Ampl” value ([1]; 5 μM) was 83.6 V/s and the “Recovery Ampl/Plateau” value ([1]; 5 μM) was 0.35. For the same compound, the “Recovery Plateau” value ([1]; 5 μM) was 245.5 V/s, the “Vmax (maximum rate of depolarization)” value ([1]; 5 μM) was 203 V/s and the “difference between the effects of Example 15 and its enantiomers (in words)” value ([1]; 5 μM) was “No essential difference could be observed”. The “Trecovery (recovery time constant of Vmax)” value ([1]; 5 μM, Gy: kinetics of rapid restoration) was 270.1 ms, the “effect on APD in ventricular muscle (in words)” value ([1]; 5 μM, ventricular muscle of the dog) was “prolonged APD in the ventricular muscle of the dog” and the APA [1, 3] was 106.3 ± 2.0 mV. The APD50 [1, 3] was 209.5 ± 7.1 ms, the APD90 [1, 3] was 260.5 ± 6.5 mS and the RP [1, 3] was -84.5 ± 1.3 mV. The Vmax [1, 3] was 203.0 ± 11.4 V/s, the “Vmax time of recovery T” value [1, 3] was 270.1 ± 14.4 ms and the “Vmax time of recovery amplitude” value [1, 3] was 83.6 ± 13.5 V/s. The “Vmax time of recovery amplitude, percentage in parentheses” value [1, 3] was 35 ± 5%, the “Vmax time of recovery plateau phase” value [1, 3] was 245.5 ± 28.0 V/s and the “effect on duration of the action potential (in words)” value ([1]; concentrations of Table 2) was “simultaneous prolongation of duration of the action potential (APD)”. For the same compound, the “effect on Vmax (in words)” value ([1]; rapid recovery kinetics, concentrations of Table 2) was “mexiletine-like inhibition of Vmax”, the “effect on early after-depolarization (EAD) (in words)” value (dog Purkinje's fibres) was “abolished” and the LD50 at 336 h (in vivo; ip) was 170 mg/kg. The LD50 at 336 h (in vivo; po) was 550 to 650 mg/kg, the cause of death (mice; i.p.) was “respiratory paralysis” and the Mortality (mice; i.p. 150 mg/kg) was 1/10. For the same compound, the Mortality (mice; i.p. 175 mg/kg) was 7/10, the Mortality (mice; i.p. 200 mg/kg) was 9/10 and the cause of death (mice; p.o.) was “respiratory paralysis”. The Mortality (mice; p.o. 500 mg/kg) was 0/5, the Mortality (mice; p.o. 600 mg/kg) was 2/5 and the Mortality (mice; p.o. 700 mg/kg) was 5/5. For the same compound, the “heart rate (in words)” value ([2]; 25 mg/kg, first 15 minutes of myocardial infarction) was “statistically unchanged”, the “antiarrhythmic effect (in words)” value ([2]; oral administration) was “showed an antiarrhythmic effect even after oral administration” and the “Survival 15 minutes” value ([2]; p.o. 25 mg/kg) was 8/50. For the same compound, the “Survival 16 hours” value ([2]; p.o. 25 mg/kg) was 7/44, the “Occurrence of arrhythmias: Brady” value [2, 4] was 2/12 and the “Occurrence of arrhythmias: Free (no arrhythmia was observed)” value [2, 4] was 3/19. For the same compound, the “Occurrence of arrhythmias: Other” value [2, 4] was 9/56, the “Occurrence of arrhythmias: VF” value [2, 4] was 10/63 and the “Occurrence of arrhythmias: VT” value [2, 4] was 12/75. For the same compound, the “Arrhythmia Score” value ([2]; p.o. 25 mg/kg, score system from 0 to 6) was 3.94 ± 0.64.
